This is an account of results in ChEMBL document CHEMBL1128195, “A novel class of cyclic beta-dicarbonyl leaving groups and their use in the design of benzisothiazolone human leukocyte elastase inhibitors” (J Med Chem, 1995).

Series [1] is described as follows: in vitro. Conditions: human, blood.
Series [2] can be described thus: in vitro. The conditions noted are these: human, liver.
Description: Half life in human liver at 37 degree C

As a reminder, the half-life is how long it takes for the measured level to halve. For `COc1cc(C(C)C)c2c(c1)S(=O)(=O)N(COC(=O)c1c(Cl)cccc1Cl)C2=O`, the half-life in “in vitro [1]” came to 2.33 h; in the series “in vitro [2]”, 1.22 h.

As for `COc1cc(C(C)C)c2c(c1)S(=O)(=O)N(COC1=C(Cc3ccccc3)C(=O)OC1C)C2=O` (configuration not stated), the half-life in “in vitro [1]” is 2.82 h; in the series “in vitro [2]”, 0.583 h.

The compound `COc1cc(C(C)C)c2c(c1)S(=O)(=O)N(COC1=CC(=O)c3ccccc31)C2=O` came in with a half-life in the series “in vitro [1]” below 0.25 h.

As to `COc1cc(C(C)C)c2c(c1)S(=O)(=O)N(COC1=C(c3ccccc3)C(=O)OC1)C2=O`, the half-life in “in vitro [1]” came to 0.483 h.

`COc1cc(C(C)C)c2c(c1)S(=O)(=O)N(COC1=C(Cc3ccccc3)C(=O)OC1)C2=O`: the values for the half-life in the series “in vitro [1]” and in the series “in vitro [2]” were 0.967 h and 1.25 h, respectively.

Compound `COc1cc(C(C)C)c2c(c1)S(=O)(=O)N(COC1=C(C)C(=O)CC1)C2=O` returned a half-life in the series “in vitro [1]” below 0.25 h.

Take `COc1cc(C(C)C)c2c(c1)S(=O)(=O)N(COC1=C(c3ccccc3)C(=O)OC1C)C2=O` (configuration not stated): the half-life in the series “in vitro [1]” was 2.57 h; in the series “in vitro [2]”, 1.37 h.

Regarding `COc1cc(C(C)C)c2c(c1)S(=O)(=O)N(COc1cc(=O)oc3ccccc13)C2=O`, the half-life in the series “in vitro [1]” was found to be 6 h.

Compound `COc1cc(C(C)C)c2c(c1)S(=O)(=O)N(COc1nc3ccccn3c(=O)c1Br)C2=O` registered a half-life in the series “in vitro [1]” of 2.07 h.

The compound `COc1cc(C(C)C)c2c(c1)S(=O)(=O)N(COC1=CC(=O)C1)C2=O` gave a half-life in the series “in vitro [1]” below 0.25 h.

In “in vitro [1]”, `COc1cc(C(C)C)c2c(c1)S(=O)(=O)N(COc1cc(C)oc(=O)c1)C2=O` had a half-life below 0.25 h.

As to `COc1cc(C(C)C)c2c(c1)S(=O)(=O)N(COc1cc(=O)n3c(n1)CCCC3)C2=O`, the half-life in the series “in vitro [1]” stood at 0.85 h.

Turning to `COc1cc(C(C)C)c2c(c1)S(=O)(=O)N(COC1=CC(=O)OC1C)C2=O` (configuration not stated), the half-life in the series “in vitro [1]” was below 0.25 h.

Regarding `COc1cc(C(C)C)c2c(c1)S(=O)(=O)N(COC1=C(Cl)C(=O)OC1)C2=O`, the half-life in “in vitro [1]” is below 0.25 h.

As to `CCC(C)c1cccc2c1C(=O)N(COc1nc3ccccn3c(=O)c1Cl)S2(=O)=O` (configuration not stated), the half-life in “in vitro [1]” was 3.83 h.

For the compound `COc1cc(C(C)C)c2c(c1)S(=O)(=O)N(COC1=CC(=O)N(Cc3ccccc3)C1)C2=O`, the half-life in the series “in vitro [1]” turned out to be 0.233 h.

Turning to `COc1cc(C(C)C)c2c(c1)S(=O)(=O)N(COC1=CC(=O)OC1)C2=O`, the half-life in the series “in vitro [1]” was below 0.25 h.

In the case of `COc1cc(C(C)C)c2c(c1)S(=O)(=O)N(COc1nc3ccccn3c(=O)c1Cl)C2=O`, the half-life in the series “in vitro [1]” was 2.67 h.

With `COc1cc(C(C)C)c2c(c1)S(=O)(=O)N(COc1cc(C)oc(=O)c1Cl)C2=O`, the half-life in the series “in vitro [1]” is below 0.25 h.

For the compound `COc1cc(C(C)C)c2c(c1)S(=O)(=O)N(COc1cc(C)oc(=O)c1C(=O)c1ccccc1)C2=O`, the half-life in the series “in vitro [1]” was below 0.25 h.

In turn, `CC(C)c1cccc2c1C(=O)N(COc1nc3ccccn3c(=O)c1Cl)S2(=O)=O` displayed a half-life in the series “in vitro [1]” of 0.833 h.

As to `COc1cc(C(C)C)c2c(c1)S(=O)(=O)N(COc1nc3ccccn3c(=O)c1C)C2=O`, the values for the half-life in “in vitro [1]” and in “in vitro [2]” were 5.83 h and 1.72 h, respectively.

As for `COc1cc(C(C)C)c2c(c1)S(=O)(=O)N(COC1=C(Cc3ccccc3)C(=O)CC1)C2=O`, the half-life in “in vitro [1]” came out at 0.917 h.

In turn, `COc1cc(C(C)C)c2c(c1)S(=O)(=O)N(COC1=C(C)C(=O)CCC1)C2=O` had a half-life in the series “in vitro [1]” of 0.267 h.

Turning to `O=C1c2ccccc2S(=O)(=O)N1COc1nc2ccccn2c(=O)c1Cl`, the half-life in the series “in vitro [1]” is below 0.25 h.

On to `COc1cc(C(C)C)c2c(c1)S(=O)(=O)N(COc1cc(=O)n3ccccc3n1)C2=O`, for which the half-life in the series “in vitro [1]” worked out at 1.78 h; in “in vitro [2]”, 1.7 h.
